Data set [1] deals with Muscarinic acetylcholine receptor. The experiment in a line: In vitro inhibition of oxotremorine-M (OXO-M) binding to muscarinic receptors of rat cerebral cortex. Type of data set: tissue-based.
The target is the same in data set [2]. Kind of data set: In vitro inhibition of [3H]quinuclidinyl benzilate (QNB) binding to muscarinic receptors of rat cerebral cortex. Type of data set: tissue-based.
The target in data set [3] is Muscarinic acetylcholine receptor (Rattus norvegicus) (UniProt P08482+P08483+P08485+P08911+P10980). Kind of data set: Relative affinities compared to oxotremorine-M (OXO-M) and [3H]quinuclidinyl benzilate (QNB) for muscarinic receptors. Type of data set: protein assay.
Data set [4] deals with Rattus norvegicus. The experiment in a line: Effective dose required to cause 50% fall in mean blood pressure (BP) by the compound on iv administration. Type of data set: functional.
Data set [5] in a line: LogD value represents the distribution coefficient at pH 7.3. The following applies: octanol/water. Type of data set: physicochemical.
Data set [6] deals with Rattus norvegicus. Kind of data set: The effective dose required to produce a change in the mean power spectrum of the EEG equivalent to that of a standard dose (0.32 mg/kg) of arecoline on iv administration. Type of data set: functional.
Data set [7] can be described thus: Compound was evaluated for its dissociation constant. Type of data set: ADME.
Data set [8] in a line: Ratio of 50% fall in mean blood pressure (BP) to rhythmical slow wave activity (RSA) was determined. Type of data set: functional.
A short description of data set [9]: Partition coefficient (logP). Type of data set: physicochemical. The following applies: octanol/water.

In general, IC50 refers to the concentration that gives 50% inhibition. A low value points to higher potency. For orientation: ED50 means the dose at which the effect has come halfway, by size or by number of responders. The low end stands for an effect at a small dose, the high end for a need for a large dose. As a reminder, the logD is lipophilicity at a set pH, counting ionised and neutral species. High values mean a more lipophilic compound, low ones a more hydrophilic compound. A word on the pKa: it is the negative logarithm of the acid dissociation constant. The term logP denotes a log measure of how a compound divides between an organic and an aqueous phase.

In the case of `CO/N=C(\C#N)[C@H]1CN2CCC1C2` (some centres undefined), the IC50 in data set [1] worked out at 23 nM; in data set [2], 2300 nM.

Take `CO/N=C(\F)[C@H]1CN2CC[C@H]1C2`: the IC50 came out at 9 nM in [1] and 3100 nM in [2]. For the same compound, the Ratio in [3] is 344.

Compound `CO/N=C(\F)C12CCCN(CC1)C2` (centres undefined) yielded an ED50 in the data set with Rattus norvegicus [4] of 0.03 mg/kg. For the same compound, the IC50 in data set [1] is 43 nM; in data set [2], 2400 nM. This compound yielded a logD in [5] of -0.76. In addition, the “ED Arec” value in the data set with Rattus norvegicus [6] came to 0.012 mg/kg. Further, the pKa in [7] came out at 9.06. Moreover, the values for the Ratio in data set [8] and in [3] were 2.5 and 56, respectively. Also, in data set [9], the log partition coefficient (logP) turned out to be 1.01.

With `CO/N=C(\F)C1CN2CCC1CC2` (centres undefined), the IC50 in data set [1] worked out at 34 nM; in data set [2] it was 2000 nM. For the same compound, the Ratio in data set [3] was 65.

Turning to `CO/N=C(\Cl)C1CN2CCC1CC2` (centres undefined), the IC50 in data set [1] worked out at 69 nM; in data set [2], 1100 nM. Moreover, the Ratio in data set [3] is 16.

In turn, `CO/N=C(\Cl)C12CCCN(CC1)C2` (centres undefined) returned an ED50 in the data set with Rattus norvegicus [4] of 0.32 mg/kg. Besides, the half-inhibitory concentration (IC50) in [1] came out at 72 nM; in [2] it was 3000 nM. For the same compound, the logD in data set [5] stood at 0.18. In the data set on Rattus norvegicus [6], the “ED Arec” value stood at 0.029 mg/kg. Moreover, in [7], the pKa turned out to be 9.24. Moreover, the results for the Ratio in data set [8] and in [3] were 11 and 42, respectively. The log partition coefficient (logP) in data set [9] came out at 2.12.

As for `CO/N=C(\F)C12CCN(CC1)C2`, the results for the 50% inhibitory concentration (IC50) in [1] and in [2] were 44 nM and 15500 nM, respectively. In data set [3], the Ratio came out at 352.

Take `CO/N=C(\Br)C12CCN(CC1)C2`: the results for the IC50 in [1] and in data set [2] were 160 nM and 8100 nM, respectively. Also, the Ratio in [3] was found to be 51.

Consider `CO/N=C(\Br)C12CCCN(CC1)C2` (centres undefined), for which the values for the IC50 in data set [1] and in data set [2] were 190 nM and 2300 nM, respectively. In addition, the Ratio in [3] was 12.

Take `CO/N=C(\C)C12CCCN(CC1)C2` (centres undefined): the ED50 with Rattus norvegicus [4] is 0.068 mg/kg. The same compound showed a log distribution coefficient (logD) in data set [5] of -1.13. Also, the “ED Arec” value with Rattus norvegicus [6] came out at 0.068 mg/kg. In [7], this compound yielded a pKa of 10.1. Moreover, the Ratio in [8] stood at 1. The compound further returned a logP in data set [9] of 1.65.

In the data set on Rattus norvegicus [4], `CO/N=C(\C#N)C12CCCN(CC1)C2` (centres undefined) gave a 50% effective dose (ED50) of 0.02 mg/kg. Also, the half-maximal inhibitory concentration (IC50) in data set [1] amounted to 11 nM; in data set [2], 220 nM. This compound also had a pH-dependent lipophilicity (logD) in [5] of -0.18. Further, the “ED Arec” value in the data set on Rattus norvegicus [6] came to 0.005 mg/kg. In addition, in data set [7], the pKa stood at 8.96. The Ratio in [8] is 4. Further, the logP in data set [9] turned out to be 1.49.

For `CO/N=C(\C#N)C12CCN(CC1)C2`, the IC50 in [1] was 19 nM; in data set [2], 1950 nM. For the same compound, the Ratio in data set [3] was 103.

`CO/N=C(\Br)[C@H]1CN2CC[C@H]1C2`: the IC50 came to 59 nM in data set [1] and 3000 nM in [2]. Moreover, in [3], the Ratio was found to be 51.

`CO/N=C(\C#N)C1CN2CCC1CC2` (centres undefined) came in with an ED50 in the data set with Rattus norvegicus [4] of more than 0.56 mg/kg. In addition, the 50% inhibitory concentration (IC50) in data set [1] was 33 nM; in [2], 470 nM. The compound further yielded a log distribution coefficient (logD) in data set [5] of -0.11. In addition, in the data set on Rattus norvegicus [6], the “ED Arec” value was 0.052 mg/kg. This compound yielded a pKa in [7] of 8.96. The Ratio was more than 10.8 in data set [8] and 14 in [3]. The compound also came in with a log partition coefficient (logP) in data set [9] of 1.56.

`CO/N=C(\Cl)[C@H]1CN2CC[C@H]1C2`: the IC50 was determined as 64 nM in [1] and 3000 nM in [2]. Moreover, in [3], the Ratio amounted to 47.

With `CO/N=C(\Cl)C12CCN(CC1)C2`, the IC50 in data set [1] worked out at 51 nM; in data set [2], 8500 nM. Also, the Ratio in [3] amounted to 167.

As to `CO/N=C(\C)C1CN2CCC1CC2` (centres undefined), the ED50 in the data set on Rattus norvegicus [4] is more than 0.1 mg/kg. This compound also showed a logD in data set [5] of -1.09. In the data set on Rattus norvegicus [6], the “ED Arec” value came to 0.31 mg/kg. In [7], this compound gave a pKa of 10.3. In [8], the Ratio is on record as more than 0.35. The compound further yielded a logP in data set [9] of 1.88.
